Laboratory results reported in US4036979A, “Compositions containing 4,5,6,7-tetrahydrobenz[b]thien-4-yl-ureas or derivatives and methods of enhancing growth rate” (American Cyanamid Company, priority 1976, dated 1977).

Experiment: Mouse Growth Regulant Tests (12-day weight gain over controls, compound in diet)
Assay type: in vivo, CFI female mice
Details: Mus musculus, feed or water, 288 h, Table VI; 50 ppm in diet
Method: CFI female mice from Carworth Farms are received when they are six weeks old. They are housed ten to a cage in air-conditioned rooms (72° F. to 76° F.) with automatically controlled lights, 14 hours on and 10 hours off. The basal diet used in these studies is Purina Laboratory Chow (see description below), which is supplied ad libitum. Water is also allowed ad libitum.
Thirteen days after arrival, the mice are weighed in groups of ten and assigned at random to the different treatments. Twelve days later the mice are weighed again and the experiment terminated. At least three cages (30 mice) of untreated controls are included in each test. Test data are provided in Tables VI, VII, VIII, and IX below wherein data are reported as percent weight gain over controls. Unless otherwise indicated in these tables, all compounds tested were dl-racemic mixtures. The following is a description of the diet to which the growth promoting compounds were added.

| SMILES | change in vivo at 50 ppm |
| --- | --- |
| CCNC(=O)NC1CCCc2sccc21 (stereo not drawn) [Table VI: O,H,H,H,H,C2H5, 1-ethyl-3-(4,5,6,7-tetrahydrobenzo[b]thien-4-yl)urea] | 40.3% |
| CNC(=O)NC1CCCc2sccc21 (stereo not drawn) [Table VI: O,H,H,H,H,CH3, 1-methyl-3-(4,5,6,7-tetrahydrobenzo[b]thien-4-yl)urea] | 61.8% |

Same assay, conditions: Mus musculus, feed or water, 288 h, Table VI; 200 ppm in diet

| SMILES | change in vivo at 200 ppm |
| --- | --- |
| CCNC(=O)NC1CCCc2sccc21 (stereo not drawn) [Table VI: O,H,H,H,H,C2H5, 1-ethyl-3-(4,5,6,7-tetrahydrobenzo[b]thien-4-yl)urea] | 87.6% |
| CCCCNC(=O)NC1CCCc2sccc21 (stereo not drawn) [Table VI: O,H,H,H,H,n-butyl] | 25% |

Same assay, conditions: Mus musculus, feed or water, 288 h, Table VI; 400 ppm in diet

| SMILES | change in vivo at 400 ppm |
| --- | --- |
| CC(C)N(O)C(=O)NC1CCCc2sccc21 (stereo not drawn) [Table VI: O,H,H,H,CH(CH3)2,OH] | 32% |
| CCNC(=O)NC1CCCc2sccc21 (stereo not drawn) [Table VI: O,H,H,H,H,C2H5, 1-ethyl-3-(4,5,6,7-tetrahydrobenzo[b]thien-4-yl)urea] | 87.6% |
| O=C(NCc1ccccc1)NC1CCCc2sccc21 (stereo not drawn) [Table VI: O,H,H,H,H,CH2C6H5, 1-benzyl-3-(4,5,6,7-tetrahydrobenzo[b]thien-4-yl)urea] | 32.4% |
| C#CCNC(=O)NC1CCCc2sccc21 (stereo not drawn) [Table VI: O,H,H,H,H,CH2CCH] | 82% |
| O=C(NCC(F)(F)F)NC1CCCc2sccc21 (stereo not drawn) [Table VI: O,H,H,H,H,CH2CF3] | 19% |
| O=C(NCCc1ccccc1)NC1CCCc2sccc21 (stereo not drawn) [Table VI: O,H,H,H,H,CH2CH2C6H5, 1-phenethyl-3-(4,5,6,7-tetrahydrobenzo[b]thien-4-yl)urea] | 72.3% |
| O=C(NCCO)NC1CCCc2sccc21 (stereo not drawn) [Table VI: O,H,H,H,H,CH2CH2OH] | 3% |
| COC(CNC(=O)NC1CCCc2sccc21)OC (stereo not drawn) [Table VI: O,H,H,H,H,CH2CH(OCH3)2] | 22% |
| C=CCNC(=O)NC1CCCc2sccc21 (stereo not drawn) [Table VI: O,H,H,H,H,CH2CHCH2] | 48.4% |
| N#CCNC(=O)NC1CCCc2sccc21 (stereo not drawn) [Table VI: O,H,H,H,H,CH2CN] | 12% |
| COCNC(=O)NC1CCCc2sccc21 (stereo not drawn) [Table VI: O,H,H,H,H,CH2OCH3, 1-(methoxymethyl)-3-(4,5,6,7-tetrahydrobenzo[b]thien-4-yl)urea] | 102% |
| CNC(=O)NC1CCCc2sccc21 (stereo not drawn) [Table VI: O,H,H,H,H,CH3, 1-methyl-3-(4,5,6,7-tetrahydrobenzo[b]thien-4-yl)urea] | 134% |
| CC(C)NC(=O)NC1CCCc2sccc21 (stereo not drawn) [Table VI: O,H,H,H,H,CH(CH3)2, 1-isopropyl-3-(4,5,6,7-tetrahydrobenzo[b]thien-4-yl)urea] | 88% |
| N#CNC(=O)NC1CCCc2sccc21 (stereo not drawn) [Table VI: O,H,H,H,H,CN] | 1% |
| CN(C)NC(=O)NC1CCCc2sccc21 (stereo not drawn) [Table VI: O,H,H,H,H,N(CH3)2] | 3% |
| COC(=O)NNC(=O)NC1CCCc2sccc21 (stereo not drawn) [Table VI: O,H,H,H,H,NHCO2CH3] | 18% |
| CCONC(=O)NC1CCCc2sccc21 (stereo not drawn) [Table VI: O,H,H,H,H,OC2H5, 1-ethoxy-3-(4,5,6,7-tetrahydrobenzo[b]-thien-4-yl)urea] | 61% |

| SMILES | change in vivo at 400 ppm |
| --- | --- |
| O=C(NOCc1ccccc1)NC1CCCc2sccc21 (stereo not drawn) [Table VI: O,H,H,H,H,OCH2C6H5, 1-benzyloxy-3-(4,5,6,7-tetrahydrobenzo[b]thien-4-yl)urea] | 7.8% |
| C=CCONC(=O)NC1CCCc2sccc21 (stereo not drawn) [Table VI: O,H,H,H,H,OCH2CHCH2] | 5% |
| O=C(O)CONC(=O)NC1CCCc2sccc21 (stereo not drawn) [Table VI: O,H,H,H,H,OCH2CO2H] | 63.3% |
| CONC(=O)NC1CCCc2sccc21 (stereo not drawn) [Table VI: O,H,H,H,H,OCH3, 1-methoxy-3-(4,5,6,7-tetrahydrobenzo[b]thien-4-yl)urea] | 68.6% |
| O=C(NO)NC1CCCc2sccc21 (stereo not drawn) [Table VI: O,H,H,H,H,OH, 1-hydroxy-3-(4,5,6,7-tetrahydrobenzo[b]thien-4-yl)urea] | 103% |
| CCCCCCONC(=O)NC1CCCc2sccc21 (stereo not drawn) [Table VI: O,H,H,H,H,On-C6H13] | 29% |
| CCCCCCNC(=O)NC1CCCc2sccc21 (stereo not drawn) [Table VI: O,H,H,H,H,n-hexyl, 1-(n-hexyl)-3-(4,5,6,7-tetrahydrobenzo[b]thien-4-yl)urea] | 14.5% |
| CCCCN(CCCC)C(=O)NC1CCCc2sccc21 (stereo not drawn) [Table VI: O,H,H,H,n-butyl,n-butyl, 1,1-dibutyl-3-(4,5,6,7-tetrahydrobenzo[b]thien-4-yl)urea] | 6% |
| NC(=O)NC1CCCc2sc([N+](=O)[O-])cc21 (stereo not drawn) [Table VI: O,NO2,H,H,H,H, 2-nitro-4,5,6,7-tetrahydrobenzo[b]thien-4-ylurea] | 17% |
| CNC(=S)NC1CCCc2sc(C)cc21 (stereo not drawn) [Table VI: S,CH3,H,H,CH3,H] | 88.5% |
| CON(C)C(=S)NC1CCCc2sccc21 (stereo not drawn) [Table VI: S,H,H,H,CH3,OCH3] | 66% |
| CCNC(=S)NC1CCCc2sccc21 (stereo not drawn) [Table VI: S,H,H,H,H,C2H5, 1-ethyl-3-(4,5,6,7-tetrahydrobenzo[b]thien-4-yl)thiourea] | 54.6% |
| C=CCNC(=S)NC1CCCc2sccc21 (stereo not drawn) [Table VI: S,H,H,H,H,CH2CHCH] | 60% |
| CCOC(=O)NC(=S)NC1CCCc2sccc21 (stereo not drawn) [Table VI: S,H,H,H,H,CO2C2H5] | 22.3% |
| NC(=S)NC1CCCc2sccc21 (stereo not drawn) [Table VI: S,H,H,H,H,H, 4,5,6,7-tetrahydrobenzo[b]thien-4-yl thiourea] | 11% |
| CCCCCCCCNC(=S)NC1CCCc2sccc21 (stereo not drawn) [Table VI: S,H,H,H,H,n-C8H17] | 16% |
| CCCCNC(=S)NC1CCCc2sccc21 (stereo not drawn) [Table VI: S,H,H,H,H,n-butyl] | 75% |

Same assay, conditions: Mus musculus, feed or water, 288 h, Table VII; 200 ppm in diet

| SMILES | change in vivo at 200 ppm |
| --- | --- |
| CN(C)C(=O)NC1CCC(=O)c2sccc21 (stereo not drawn) [Table VII: O,CH3,CH3, 1,1-dimethyl-3-(4,5,6,7-tetrahydro-7-oxobenzo[b]thien-4-yl)urea] | 58.6% |
| CON(C)C(=O)NC1CCC(=O)c2sccc21 (stereo not drawn) [Table VII: O,CH3,OCH3, 1-methoxy-1-methyl-3-(4,5,6,7-tetrahydro-7-oxobenzo[b]thien-4-yl)urea] | 62.6% |
| CN(O)C(=O)NC1CCC(=O)c2sccc21 (stereo not drawn) [Table VII: O,CH3,OH] | 31.3% |
| C#CCNC(=O)NC1CCC(=O)c2sccc21 (stereo not drawn) [Table VII: O,H,CH2CCH, 1-(2-propynyl)-3-(4,5,6,7-tetrahydro-7-oxobenzo[b]thien-4-yl)urea] | 40.6% |
| CONC(=O)NC1CCC(=O)c2sccc21 (stereo not drawn) [Table VII: O,H,OCH3] | 71% |
| CC(C)NC(=O)NC1CCC(=O)c2sccc21 (stereo not drawn) [Table VII: O,H,iso-C3H7] | 84% |

Same assay, conditions: Mus musculus, feed or water, 288 h, Table VII; 400 ppm in diet

| SMILES | change in vivo at 400 ppm |
| --- | --- |
| CCNC(=O)NC1CCC(=O)c2sccc21 (stereo not drawn) [Table VII: O,H,C2H5, 1-ethyl-3-(4,5,6,7-tetrahydro-7-oxobenzo[b]thien-4-yl)urea] | 79.3% |
| C=CCNC(=O)NC1CCC(=O)c2sccc21 (stereo not drawn) [Table VII: O,H,CH2CHCH2] | 58.7% |
| COCNC(=O)NC1CCC(=O)c2sccc21 (stereo not drawn) [Table VII: O,H,CH2OCH3, 1-(methoxymethyl)-3-(4,5,6,7-tetrahydro-7-oxobenzo[b]thien-4-yl)urea] | 143% |
| CNC(=O)NC1CCC(=O)c2sccc21 (stereo not drawn) [Table VII: O,H,CH3, 1-methyl-3-(4,5,6,7-tetrahydro-7-oxobenzo[b]thien-4-yl)urea] | 64.8% |
| CCCCCCCCNC(=O)NC1CCC(=O)c2sccc21 (stereo not drawn) [Table VII: O,H,n-C8H17] | 83.4% |
| CCCCCCCCCCNC(=O)NC1CCC(=O)c2sccc21 (stereo not drawn) [Table VII: O,H,n-C10H21] | 15.4% |
| CCCCCCCCCCCCNC(=O)NC1CCC(=O)c2sccc21 (stereo not drawn) [Table VII: O,H,n-C12H25, 1-n-dodecyl-3-(4,5,6,7-tetrahydro-7-oxobenzo[b]thien-4-yl)urea] | 4.1% |
| CCCCCCCCCCCCCCNC(=O)NC1CCC(=O)c2sccc21 (stereo not drawn) [Table VII: O,H,n-C14H29] | 9.7% |
| CNC(=S)NC1CCC(=O)c2sccc21 (stereo not drawn) [Table VII: S,H,CH3] | 62.5% |

Same assay, conditions: Mus musculus, feed or water, 288 h, Table VIII; 50 ppm in diet

| SMILES | change in vivo at 50 ppm |
| --- | --- |
| C#CCNC(=O)NC1CCC(O)c2sccc21 (stereo not drawn) [Table VIII: O,H,CH2CCH, 1-(2-propynyl)-3-(7-hydroxy-4,5,6,7-tetrahydrobenzo[b]thien-4-yl)urea] | 49.2% |

Same assay, conditions: Mus musculus, feed or water, 288 h, Table VIII; 200 ppm in diet

| SMILES | change in vivo at 200 ppm |
| --- | --- |
| CON(C)C(=O)NC1CCC(O)c2sccc21 (stereo not drawn) [Table VIII: O,CH3,OCH3, 1-methyl-1-methoxy-3-(7-hydroxy-4,5,6,7-tetrahydrobenzo[b]-thien-4-yl)urea] | 60.5% |
| CCNC(=O)NC1CCC(O)c2sccc21 (stereo not drawn) [Table VIII: O,H,C2H5, 1-ethyl-3-(7-hydroxy-4,5,6,7-tetrahydrobenzo[b]thien-4-yl)urea] | 73.4% |

Same assay, conditions: Mus musculus, feed or water, 288 h, Table VIII; 400 ppm in diet

| SMILES | change in vivo at 400 ppm |
| --- | --- |
| CN(C)C(=O)NC1CCC(O)c2sccc21 (stereo not drawn) [Table VIII: O,CH3,CH3, 1,1-dimethyl-3-(7-hydroxy-4,5,6,7-tetrahydrobenzo[b]thien-4-yl)urea] | 81.5% |
| C=CCNC(=O)NC1CCC(O)c2sccc21 (stereo not drawn) [Table VIII: O,H,CH2CHCH2, 1-allyl-3-(7-hydroxy-4,5,6,7-tetrahydrobenzo[b]thien-4-yl)-urea] | 29.1% |
| COCNC(=O)NC1CCC(O)c2sccc21 (stereo not drawn) [Table VIII: O,H,CH2OCH3, 1-(methoxymethyl)-3-(4,5,6,7-tetrahydro-7-hydroxybenzo[b]thien-4-yl)urea] | 124% |
| CNC(=O)NC1CCC(O)c2sccc21 (stereo not drawn) [Table VIII: O,H,CH3, 1-methyl-3-(7-hyroxy-4,5,6,7-tetrahydrobenzo[b]thien-4-yl)urea] | 60.2% |
